{"source": "patent US8603493B2", "about": "“Carbosilane dendrimers, preparation method thereof and use of same” (Dendrico, S.L., priority 2005, dated 2013)", "key": {"[1]": {"test_system": "peripheral blood mononuclear cells (PBMC)", "assay": "Mitochondrial activity: MTT on PBMC", "format": "cell-based, human", "details": "for Cell viability after incubation with dendrimers according to MTT: 48 hours, relative to untreated control; for mitochondrial viability (comparison among dendrimers): increasing concentrations of CBS or SF", "protocol": "The toxicity of dendrimers IM8, IM16, ClNH4, NN, Phe and the commercial controls SF (Superfect) and G4 were tested. Different quantities were taken of each one of them so that the final concentrations with which the cells were incubated were 1 μM, 5 μM, 10 μM, 20 μM and 100 μM.\nThe blood came from adult donors or the umbilical cord of health newborns. Said blood was diluted ½ with PBS and it was centrifuged in a Ficoll gradient. After said centrifugation, the PBMC halo was recovered and two subsequent washing-centrifuging cycles were carried out. The resulting PBMC were resuspended in complete culture medium with 10% FCS, antibiotics and glutamine.\n100 μl of 10% complete medium of foetal calf serum, antibiotics and glutamine were added to a volume of 60 μl of RPMI with the corresponding dendrimer tested. 160 μl were then added to the cells seeded in 340 μl, completing a final volume of 500 μl. The cells were incubated in this way for 48 hours and then the effect of the incubation with the dendrimers was evaluated by its visual examination and by the evaluation of the mitochondrial activity.\nA curve of mitochondrial activity was performed of the dendrimer concentration after 48 hours. […] It is a […] test based on the selective capacity of the cells viable for reducing 3-(4,5-dimethylthiazol-2-il)-2,5-diphenyl tetrazolium bromide in insoluble formazan crystals. After 48 hours of incubation of the PBMC with different concentrations of dendrimers in a 96-well plate (100,000/well), the supernatant which contained dendrimer was removed and it was replaced by 200 μl of a culture medium without serum or red phenol (Optimem). To avoid the loss of cells in this step and subsequently of formazan, a modification had been made of the protocol, seeding the PBMC in total human plasma fibronectin (Sigma®) at a concentration of 5-10 μg/ml, so that during the 4-hour incubation they fixed to the bottom of the well. In addition to the 200 μl of Optimem, 20 μl of filtered MTT were added to achieve its sterility (Thiazolyl Blue, Sigma®) in PBS pH 7.4 at a concentration of 5 mg/ml to achieve a final concentration per well of 0.5 mg MTT/ml. After 4 hours of incubation at 37° C. with 5% CO2 atmosphere, the plate was centrifuged at 2000 rpm and the supernatant with the excess MTT that had not reacted was subsequently removed. The formazan crystals were observed under a phase contrast microscope and later dissolved with 200 μl of dimethyl sulfoxide (DMSO). The plate was stirred at 700 rpm in an Eppendorf® stirrer-heater to ensure the correct dissolution of said crystals. The concentration of formazan ([A]) was determined by spectrometry using a plate reader at a wavelength of 570 nm with a reference of 690 nm. The spectrophotometry was calibrated to zero using Optimem without cells. The relative cell viability (%) with respect to the control (untreated cells), based on mitochondrial activity, was calculated based on this formula: [A] test/[A] control×100. Each dendrimer concentration was tested in triplicate, following the guidelines of the ATCC."}, "[2]": {"assay": "Dendrimer-drug binding test (polyacrylamide gel delay), heparin", "details": "dendrimer 100 μM, heparin 10, 1, 0.5, 0.1 U, 37° C., 1 hour", "protocol": "(§1) The drugs chosen to perform the tests, all with at least one negative charge at physiological pH, were: • Methotrexate (sodium salt): • 1 charge (−) • Supplying laboratory: Almirall • Presentation: 25 mg/ml solution • Excipients: NaCl, NaOH, HCl, double-distilled H2O • Heparin (sodium salt) • Several charges (−) • Supplying laboratory: Rovi • Presentation: 10 mg/ml solution (1000 U) • Excipients: methyl p-oxybenzoate, propyl p-oxybenzoate, NaCl, double-distilled H2O • Insulin (recombinant human insulin) • 4 charges (−) • Supplying laboratory: Novo Nordisk • Product trade name: Actrapid • Presentation: 3.5 mg/ml solution (100 U) • Excipients: ZnCl2, HCl, NaOH, double-distilled H2O\n(§2) The determination of the bond and complex formation between the dendrimer and the drug was performed by evaluating the delay in the polyacrylamide gel of the dendrimer bound to drug with respect to the free dendrimer: • Complex formation: It is performed in a final volume of the mixture of 30 μl, which is the maximum volume to load in the gel. To do this, one starts from the necessary quantity of dendrimer that provides a perfectly identifiable band by staining with silver nitrate in the gel once the electrophoresis has been carried out: 20 μl of a 100 μM solution, which corresponds to […] molecules. The drug is added in the 10 μl at different concentrations to produce the chosen (+) and (−) charge ratios, also determining the quantity of drug molecules present in the mixture. An incubation of said mixture was performed at 37° C. during 1 hour to give time for a more thermodynamically stable complex to form, although more time may be needed for its formation. Each complex is performed in duplicate. • Electrophoresis and gel staining: The gels used were 7.5% polyacrylamide/bisacrylamide, prepared with 1.5M Tris pH 8.8. Each electrophoresis was carried out at 90 volts during 4 hours, after which the gel was stained with silver nitrate and photographed. […]"}, "[3]": {"assay": "Dendrimer-drug binding test (polyacrylamide gel delay), methotrexate", "details": "dendrimer 100 μM, charge ratios 1+/1− to 8+/1−, 37° C., 1 hour", "protocol": "as §1, §2"}, "[4]": {"target": "T1, Insulin (recombinant human insulin) (Homo sapiens, UniProt P01308)", "T1 construct": "Despite having its molecular weight (5825 g/mol) and establishing an average of 4 (−) charges; purchased Novo Nordisk Actrapid (trade name; no catalogue number given)", "T1 sequence (P01308 25-54 limits assumed)": "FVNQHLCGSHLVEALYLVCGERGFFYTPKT", "T1 sequence (P01308 90-110 limits assumed)": "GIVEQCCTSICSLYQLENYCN", "assay": "Dendrimer-drug binding test (polyacrylamide gel delay), insulin", "details": "dendrimer 100 μM, insulin 1, 0.5, 0.1, 0.05 U, 37° C., 1 hour", "protocol": "as §1, §2"}}}
{"smiles": "C[Si](C)(CCCN)CCC[Si](C)(CCC[Si](C)(C)CCCN)CCC[Si](CCC[Si](C)(CCC[Si](C)(C)CCCN)CCC[Si](C)(C)CCCN)(CCC[Si](C)(CCC[Si](C)(C)CCCN)CCC[Si](C)(C)CCCN)CCC[Si](C)(CCC[Si](C)(C)CCCN)CCC[Si](C)(C)CCCN.Cl.Cl.Cl.Cl.Cl.Cl.Cl.Cl", "note": "[ClNH4, 2G-[Si(CH2)3NH3^+Cl^−]8]", "values": [{"measurement": "Cell viability after incubation with dendrimers according to MTT", "setting": "[1]; 1 μM", "result": 65.5, "unit": "%"}, {"measurement": "Cell viability after incubation with dendrimers according to MTT", "setting": "[1]; 5 μM", "result": 47, "unit": "%"}, {"measurement": "Cell viability after incubation with dendrimers according to MTT", "setting": "[1]; 10 μM", "result": 40, "unit": "%"}, {"measurement": "Cell viability after incubation with dendrimers according to MTT", "setting": "[1]; 20 μM", "result": 16, "unit": "%"}, {"measurement": "Cell viability after incubation with dendrimers according to MTT", "setting": "[1]; 100 μM", "result": 14, "unit": "%"}]}
{"smiles": "C[N+](C)(C)CCO[Si](C)(C)CCC[Si](C)(CCC[Si](CCC[Si](C)(CCC[Si](C)(C)OCC[N+](C)(C)C)CCC[Si](C)(C)OCC[N+](C)(C)C)(CCC[Si](C)(CCC[Si](C)(C)OCC[N+](C)(C)C)CCC[Si](C)(C)OCC[N+](C)(C)C)CCC[Si](C)(CCC[Si](C)(C)OCC[N+](C)(C)C)CCC[Si](C)(C)OCC[N+](C)(C)C)CCC[Si](C)(C)OCC[N+](C)(C)C.[I-].[I-].[I-].[I-].[I-].[I-].[I-].[I-]", "note": "[IM8, 2G-[Si(OCH2CH2NMe3^+I^−)]8]", "values": [{"measurement": "Cell viability after incubation with dendrimers according to MTT", "setting": "[1]; 1 μM", "result": 98, "unit": "%"}, {"measurement": "Cell viability after incubation with dendrimers according to MTT", "setting": "[1]; 5 μM", "result": 60, "unit": "%"}, {"measurement": "Cell viability after incubation with dendrimers according to MTT", "setting": "[1]; 10 μM", "result": 18, "unit": "%"}, {"measurement": "Cell viability after incubation with dendrimers according to MTT", "setting": "[1]; 20 μM", "result": 12, "unit": "%"}, {"measurement": "Cell viability after incubation with dendrimers according to MTT", "setting": "[1]; 100 μM", "result": 10, "unit": "%"}]}
{"smiles": "C[N+](C)(C)CCO[Si](C)(CCC[Si](C)(CCC[Si](CCC[Si](C)(CCC[Si](C)(OCC[N+](C)(C)C)OCC[N+](C)(C)C)CCC[Si](C)(OCC[N+](C)(C)C)OCC[N+](C)(C)C)(CCC[Si](C)(CCC[Si](C)(OCC[N+](C)(C)C)OCC[N+](C)(C)C)CCC[Si](C)(OCC[N+](C)(C)C)OCC[N+](C)(C)C)CCC[Si](C)(CCC[Si](C)(OCC[N+](C)(C)C)OCC[N+](C)(C)C)CCC[Si](C)(OCC[N+](C)(C)C)OCC[N+](C)(C)C)CCC[Si](C)(OCC[N+](C)(C)C)OCC[N+](C)(C)C)OCC[N+](C)(C)C.[I-].[I-].[I-].[I-].[I-].[I-].[I-].[I-].[I-].[I-].[I-].[I-].[I-].[I-].[I-].[I-]", "note": "[IM16, 2G-[Si(OCH2CH2NMe3^+I^−)2]8]", "values": [{"measurement": "Cell viability after incubation with dendrimers according to MTT", "setting": "[1]; 1 μM", "result": 94, "unit": "%"}, {"measurement": "Cell viability after incubation with dendrimers according to MTT", "setting": "[1]; 5 μM", "result": 99, "unit": "%"}, {"measurement": "Cell viability after incubation with dendrimers according to MTT", "setting": "[1]; 10 μM", "result": 63, "unit": "%"}, {"measurement": "Cell viability after incubation with dendrimers according to MTT", "setting": "[1]; 20 μM", "result": 37, "unit": "%"}, {"measurement": "Cell viability after incubation with dendrimers according to MTT", "setting": "[1]; 100 μM", "result": 11, "unit": "%"}, {"measurement": "mitochondrial viability (comparison among dendrimers)", "setting": "[1]", "result": "greater mitochondrial viability"}, {"measurement": "dendrimer-heparin complex formation (delay in gel)", "setting": "[2]", "result": "complex is formed"}, {"measurement": "dendrimer-methotrexate complex formation (delay in gel)", "setting": "[3]", "result": "complex is not formed"}, {"measurement": "dendrimer-insulin complex formation (delay in gel)", "setting": "[4]", "result": "complex is formed"}]}
{"smiles": "CN(CCO[Si](C)(C)CCC[Si](C)(CCC[Si](CCC[Si](C)(CCC[Si](C)(C)OCCN(C)CC[N+](C)(C)C)CCC[Si](C)(C)OCCN(C)CC[N+](C)(C)C)(CCC[Si](C)(CCC[Si](C)(C)OCCN(C)CC[N+](C)(C)C)CCC[Si](C)(C)OCCN(C)CC[N+](C)(C)C)CCC[Si](C)(CCC[Si](C)(C)OCCN(C)CC[N+](C)(C)C)CCC[Si](C)(C)OCCN(C)CC[N+](C)(C)C)CCC[Si](C)(C)OCCN(C)CC[N+](C)(C)C)CC[N+](C)(C)C.[I-].[I-].[I-].[I-].[I-].[I-].[I-].[I-]", "note": "[NN, 2G-[Si(O(CH2)2N(Me)(CH2)2NMe3^+I^−)]8]", "values": [{"measurement": "Cell viability after incubation with dendrimers according to MTT", "setting": "[1]; 1 μM", "result": 87, "unit": "%"}, {"measurement": "Cell viability after incubation with dendrimers according to MTT", "setting": "[1]; 5 μM", "result": 68, "unit": "%"}, {"measurement": "Cell viability after incubation with dendrimers according to MTT", "setting": "[1]; 10 μM", "result": 66, "unit": "%"}, {"measurement": "Cell viability after incubation with dendrimers according to MTT", "setting": "[1]; 20 μM", "result": 32, "unit": "%"}, {"measurement": "Cell viability after incubation with dendrimers according to MTT", "setting": "[1]; 100 μM", "result": 9, "unit": "%"}, {"measurement": "mitochondrial viability (comparison among dendrimers)", "setting": "[1]", "result": "greater mitochondrial viability"}, {"measurement": "dendrimer-heparin complex formation (delay in gel)", "setting": "[2]", "result": "complex is formed"}, {"measurement": "dendrimer-methotrexate complex formation (delay in gel)", "setting": "[3]", "result": "complex is formed"}, {"measurement": "dendrimer-insulin complex formation (delay in gel)", "setting": "[4]", "result": "complex is formed"}]}
{"smiles": "C[N+](C)(C)CCOc1cc(CO[Si](C)(C)CCC[Si](C)(CCC[Si](CCC[Si](C)(CCC[Si](C)(C)OCc2cc(OCC[N+](C)(C)C)cc(OCC[N+](C)(C)C)c2)CCC[Si](C)(C)OCc2cc(OCC[N+](C)(C)C)cc(OCC[N+](C)(C)C)c2)(CCC[Si](C)(CCC[Si](C)(C)OCc2cc(OCC[N+](C)(C)C)cc(OCC[N+](C)(C)C)c2)CCC[Si](C)(C)OCc2cc(OCC[N+](C)(C)C)cc(OCC[N+](C)(C)C)c2)CCC[Si](C)(CCC[Si](C)(C)OCc2cc(OCC[N+](C)(C)C)cc(OCC[N+](C)(C)C)c2)CCC[Si](C)(C)OCc2cc(OCC[N+](C)(C)C)cc(OCC[N+](C)(C)C)c2)CCC[Si](C)(C)OCc2cc(OCC[N+](C)(C)C)cc(OCC[N+](C)(C)C)c2)cc(OCC[N+](C)(C)C)c1.[I-].[I-].[I-].[I-].[I-].[I-].[I-].[I-].[I-].[I-].[I-].[I-].[I-].[I-].[I-].[I-]", "note": "[Phe, 2G-[Si(OCH2—(C6H3)-3,5-(OCH2CH2NMe3^+I^−)2)]8]", "values": [{"measurement": "Cell viability after incubation with dendrimers according to MTT", "setting": "[1]; 1 μM", "result": 83, "unit": "%"}, {"measurement": "Cell viability after incubation with dendrimers according to MTT", "setting": "[1]; 5 μM", "result": 77, "unit": "%"}, {"measurement": "Cell viability after incubation with dendrimers according to MTT", "setting": "[1]; 10 μM", "result": 71, "unit": "%"}, {"measurement": "Cell viability after incubation with dendrimers according to MTT", "setting": "[1]; 20 μM", "result": 54, "unit": "%"}, {"measurement": "Cell viability after incubation with dendrimers according to MTT", "setting": "[1]; 100 μM", "result": 14, "unit": "%"}, {"measurement": "mitochondrial viability (comparison among dendrimers)", "setting": "[1]", "result": "greater mitochondrial viability"}]}
